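1) Cells in 96-well plates. 2) Compound, 48 h, 5 concentrations. 3) Linear interpolation between surrounding doses. 4) Unreached endpoint = highest concentration. GI50 marks 50% less growth.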 Calls of active or inactive are those of the source. Rule as the data show it: active = GI50 up to about 1.1 µM and inactive = higher.
Key:
Assay in all cases: growth of human tumour cells (NCI), 48 h
BT-549 = tested on: BT-549
UO-31 = tested on: UO-31
NCI-H23 = tested on: NCI-H23
OVCAR-3 = tested on: OVCAR-3
A549 = tested on: A549
MDA-N = tested on: MDA-N
NCI-H226 = tested on: NCI-H226
SK-MEL-5 = tested on: SK-MEL-5
EKVX = tested on: EKVX
A498 = tested on: A498
TK-10 = tested on: TK-10
UACC-62 = tested on: UACC-62
HOP-62 = tested on: HOP-62
SF-295 = tested on: SF-295
T47D = tested on: T47D
RXF 393 = tested on: RXF 393
HCT-116 = tested on: HCT-116
LOX IMVI = tested on: LOX IMVI
HCC 2998 = tested on: HCC 2998

| Compound | GI50 (BT-549) | GI50 (UO-31) | GI50 (NCI-H23) | GI50 (OVCAR-3) | GI50 (A549) | GI50 (MDA-N) | GI50 (NCI-H226) | GI50 (SK-MEL-5) | GI50 (EKVX) | GI50 (A498) | GI50 (TK-10) | GI50 (UACC-62) | GI50 (HOP-62) | GI50 (SF-295) | GI50 (T47D) | GI50 (RXF 393) | GI50 (HCT-116) | GI50 (LOX IMVI) | GI50 (HCC 2998) |
| --- | --- | --- | --- | --- | --- | --- | --- | --- | --- | --- | --- | --- | --- | --- | --- | --- | --- | --- | --- |
| COc1ccc(N2C(=O)C3c4[nH]c5ccccc5c4C4CCC(c5ccccc5)CC4C3C2=O)cc1 (stereo not given) | 31.4 µM (inactive) | 46.8 µM (inactive) | 19.8 µM (inactive) | > 64 µM (inactive) | 26.5 µM (inactive) | 52.8 µM (inactive) | > 45.7 µM (inactive) | 26.1 µM (inactive) | 25.1 µM (inactive) | 29 µM (inactive) | 12.8 µM (inactive) | 24.8 µM (inactive) | 7.28 µM (inactive) | 22.9 µM (inactive) | > 66.4 µM (inactive) | 10.2 µM (inactive) | > 39.8 µM (inactive) | > 32.5 µM (inactive) |  |
| CC(=O)O[C@@H]1[C@H]2O[C@H]2[C@H]2O[C@@]2(COC(=O)c2ccccc2)[C@H]1OC(C)=O | > 100 µM (inactive) | > 100 µM (inactive) | > 100 µM (inactive) | > 100 µM (inactive) | > 100 µM (inactive) | > 100 µM (inactive) | > 100 µM (inactive) | > 100 µM (inactive) | > 100 µM (inactive) | > 100 µM (inactive) | > 100 µM (inactive) | > 100 µM (inactive) |  | > 100 µM (inactive) | > 100 µM (inactive) |  | > 100 µM (inactive) | > 100 µM (inactive) | > 100 µM (inactive) |
| COC(OC)C1OC(CO)C(n2cc(F)c(=O)[nH]c2=O)C1O (stereo not given) | > 100 µM (inactive) | > 100 µM (inactive) | > 100 µM (inactive) | > 100 µM (inactive) | > 100 µM (inactive) | > 100 µM (inactive) | > 100 µM (inactive) |  | > 100 µM (inactive) | > 100 µM (inactive) | > 100 µM (inactive) | > 100 µM (inactive) | > 100 µM (inactive) | > 100 µM (inactive) | 25.4 µM (inactive) | > 100 µM (inactive) | > 100 µM (inactive) | > 100 µM (inactive) | > 100 µM (inactive) |
| COC1=C(OC)C(=O)C(Cc2c(Cl)nc3n2CCS3)=C(C)C1=O | 14.4 µM (inactive) | 13.7 µM (inactive) | 12.3 µM (inactive) | 16.7 µM (inactive) | 15.3 µM (inactive) | 13.9 µM (inactive) |  | 11.7 µM (inactive) | 12.1 µM (inactive) | 18.9 µM (inactive) | 15.6 µM (inactive) | 12.1 µM (inactive) | 15.6 µM (inactive) | 14.8 µM (inactive) | 4.13 µM (inactive) | 17.4 µM (inactive) | 11.7 µM (inactive) | 6.35 µM (inactive) | 16.5 µM (inactive) |
| CCCNc1[nH]c(C(=O)c2ccccc2)c(N)c1C(=S)Nc1ccccc1 | > 100 µM (inactive) | > 100 µM (inactive) | > 100 µM (inactive) | > 100 µM (inactive) | > 100 µM (inactive) | > 100 µM (inactive) | > 100 µM (inactive) | > 100 µM (inactive) | > 100 µM (inactive) | > 100 µM (inactive) | > 100 µM (inactive) | > 100 µM (inactive) | > 100 µM (inactive) | > 100 µM (inactive) | > 100 µM (inactive) |  | > 100 µM (inactive) | > 100 µM (inactive) | > 100 µM (inactive) |
| CC1=NN=C(N)N/C1=C\C(Sc1ccc(Cl)cc1)c1ccc([N+](=O)[O-])cc1 (stereo not given) | 80 µM (inactive) | 28.3 µM (inactive) | 80.9 µM (inactive) |  | > 100 µM (inactive) | 89.1 µM (inactive) | 20.8 µM (inactive) | 74.5 µM (inactive) | 71.8 µM (inactive) | > 100 µM (inactive) | > 100 µM (inactive) | 91.6 µM (inactive) | > 100 µM (inactive) | > 100 µM (inactive) | > 100 µM (inactive) | > 100 µM (inactive) | 39.8 µM (inactive) | 51.8 µM (inactive) | > 100 µM (inactive) |
| Cc1cc2nc3c(C#N)c(-c4ccccc4)cc(Nc4ccc(Cl)cc4)n3c2cc1C | > 100 µM (inactive) | > 100 µM (inactive) | > 100 µM (inactive) | 6.05 µM (inactive) | > 100 µM (inactive) | > 100 µM (inactive) | > 100 µM (inactive) | > 100 µM (inactive) | 8.22 µM (inactive) | > 100 µM (inactive) | > 100 µM (inactive) |  | > 100 µM (inactive) | > 100 µM (inactive) | 6.24 µM (inactive) | > 100 µM (inactive) | > 100 µM (inactive) | > 100 µM (inactive) | > 100 µM (inactive) |
| CC1CCc2c(c(CC3CC(=O)NC(=O)C3)nn2-c2ccccc2)C1 (stereo not given) | > 100 µM (inactive) | 55.6 µM (inactive) | > 100 µM (inactive) | > 100 µM (inactive) | > 100 µM (inactive) | > 100 µM (inactive) | > 100 µM (inactive) | > 100 µM (inactive) | > 100 µM (inactive) | > 100 µM (inactive) | > 100 µM (inactive) | 76.2 µM (inactive) | > 100 µM (inactive) | > 100 µM (inactive) | > 100 µM (inactive) | > 100 µM (inactive) | > 100 µM (inactive) | > 100 µM (inactive) | > 100 µM (inactive) |
| Cc1ccc(C)c(COCCOCn2ccc(N)nc2=O)c1 | > 100 µM (inactive) | > 100 µM (inactive) | > 100 µM (inactive) | > 100 µM (inactive) | > 100 µM (inactive) | > 100 µM (inactive) | > 100 µM (inactive) |  | > 100 µM (inactive) | > 100 µM (inactive) | > 100 µM (inactive) | > 100 µM (inactive) | > 100 µM (inactive) | > 100 µM (inactive) | > 100 µM (inactive) | > 100 µM (inactive) | > 100 µM (inactive) | > 100 µM (inactive) | > 100 µM (inactive) |
| O=c1[nH]nc(-c2ccccc2)n1-c1ccncc1 | > 100 µM (inactive) | > 100 µM (inactive) | > 100 µM (inactive) | > 100 µM (inactive) | > 100 µM (inactive) | > 100 µM (inactive) | > 100 µM (inactive) | > 100 µM (inactive) | > 100 µM (inactive) | > 100 µM (inactive) | > 100 µM (inactive) |  | > 100 µM (inactive) | > 100 µM (inactive) | > 100 µM (inactive) | > 100 µM (inactive) | > 100 µM (inactive) | > 100 µM (inactive) | > 100 µM (inactive) |
| Nc1ccc2c(c1)C1Oc3ccccc3CC1CO2 (stereo not given) | 74.6 µM (inactive) | > 100 µM (inactive) | > 100 µM (inactive) | > 100 µM (inactive) | > 100 µM (inactive) | > 100 µM (inactive) | > 100 µM (inactive) | > 100 µM (inactive) | > 100 µM (inactive) | > 100 µM (inactive) | > 100 µM (inactive) | > 100 µM (inactive) | > 100 µM (inactive) | > 100 µM (inactive) | 76 µM (inactive) |  | > 100 µM (inactive) | > 100 µM (inactive) | > 100 µM (inactive) |
| CCOc1nc2sc3c(c2c(=O)n1CCSSCCn1c(OCC)nc2sc4c(c2c1=O)CCCC4)CCCC3 | > 100 µM (inactive) | > 100 µM (inactive) | > 100 µM (inactive) | > 100 µM (inactive) | > 100 µM (inactive) | > 100 µM (inactive) | 56.4 µM (inactive) | > 100 µM (inactive) | > 100 µM (inactive) | > 100 µM (inactive) | > 100 µM (inactive) | > 100 µM (inactive) | > 100 µM (inactive) | > 100 µM (inactive) | > 100 µM (inactive) |  | > 100 µM (inactive) | > 100 µM (inactive) | > 100 µM (inactive) |
| Cc1ccc(S(N)(C(=O)Nc2cccc3ccccc23)[N+](=O)[O-])cc1 (stereo not given) | > 100 µM (inactive) | 35.7 µM (inactive) | > 100 µM (inactive) | 61.8 µM (inactive) |  | > 100 µM (inactive) | > 100 µM (inactive) | 93.3 µM (inactive) |  | > 100 µM (inactive) | 72.4 µM (inactive) | > 100 µM (inactive) | > 100 µM (inactive) | 89.7 µM (inactive) | 46.2 µM (inactive) | > 100 µM (inactive) | 66.7 µM (inactive) | > 100 µM (inactive) | > 100 µM (inactive) |
| Nc1ccc2[nH]c(C(=O)N3CC(CCl)c4c3cc(N)c3ccccc43)cc2c1 (stereo not given) | < 0.016 µM (active) | 0.0114 µM (active) | < 0.01 µM (active) | 0.0166 µM (active) | < 0.01 µM (active) | < 0.01 µM (active) | 0.0105 µM (active) | < 0.01 µM (active) | < 0.01 µM (active) | < 0.01 µM (active) | < 0.01 µM (active) | < 0.01 µM (active) | < 0.01 µM (active) | < 0.01 µM (active) | 0.0119 µM (active) | < 0.01 µM (active) | < 0.01 µM (active) | < 0.01 µM (active) | < 0.01 µM (active) |
| COC(=O)CNC(=O)CCC(C)[C@H]1CCC2C3C(C[C@H](OC(C)=O)[C@@]21C)[C@@]1(C)CCC2(C[C@H]1C[C@H]3OC(C)=O)OOC1(CC[C@]3(C)C4C[C@H](OC(C)=O)[C@@]5(C)C(CC[C@@H]5C(C)CCC(=O)NCC(=O)OC)C4[C@H](OC(C)=O)C[C@@H]3C1)OO2 (stereo not given in full) | > 50 µM (inactive) | 0.828 µM (active) | 1.03 µM (active) | 3.03 µM (inactive) | 0.914 µM (active) | 3.44 µM (inactive) | 1.12 µM (active) | 0.94 µM (active) | 0.993 µM (active) | 12 µM (inactive) | 1.19 µM (inactive) |  | 0.746 µM (active) | 5.65 µM (inactive) | 2.6 µM (inactive) | 0.931 µM (active) | 1.99 µM (inactive) | 0.962 µM (active) | 0.944 µM (active) |
